Values quoted from earlier work as cited in PubChem BioAssay AID1259410 (Chemical Carcinogenesis Research Information System (CCRIS), 2018).

Tested on: rodent tumor promotion studies, tumor incidence
Assay: CCRIS tumor promotion studies

In the case of `N[C@@H](Cc1cc(I)c(Oc2cc(I)c(O)c(I)c2)c(I)c1)C(=O)O`, the outcome (Carcinogen: AZOXYMETHANE, 25843-45-2, Doses [Carcinogen]: 7.4 MG/KG IN 0.9% SALINE 1/WK FOR 10 WK, Doses [Promoter]: 0, 0.2 UG/KG IN OLIVE OIL 1/2 D FOR 35 WK (STUDY DURATION: 35 WK), Route [Carcinogen]: SUBCUTANEOUS, Route [Promoter]: SUBCUTANEOUS, Species: RAT, Strain/Sex: WISTAR/MALE) is given as “colon: tumor” and the outcome (Carcinogen: N-METHYL-N'-NITRO-N-NITROSOGUANIDINE, 70-25-7, Doses [Carcinogen]: 25 UG/ML IN DRINKING WATER FOR 25 WK, Doses [Promoter]: 0, 0.2 UG/KG BW IN OLIVE OIL 1/2 D BEGINNING POST CARCINOGEN TREATMENT AND CONTINUING FOR 26 WK (STUDY DURATION: 52 WK), Route [Carcinogen]: ORAL, Route [Promoter]: SUBCUTANEOUS, Species: RAT, Strain/Sex: WISTAR/MALE) is given as “stomach: adenocarcinoma”.

For `CCCCCCCCCCCCCCCCCC`, the outcome (Carcinogen: 7,12-DIMETHYLBENZ(A)ANTHRACENE, Doses [Carcinogen]: TOP, Route [Carcinogen]: DERMAL, Route [Promoter]: DERMAL, Species: MOUSE, Strain/Sex: MALE,FEMALE) is given as “integumentary system (skin)”.

In the case of `Clc1c(Cl)c(Cl)c(Cl)c(Cl)c1Cl`, the outcome (Carcinogen: DIETHYLNITROSAMINE, 55-18-5, Doses [Carcinogen]: 0.015% IN DRINKING WATER FOR 3 WK, Doses [Promoter]: 0, 0.02% IN DIET (10.5 MG/KG/D) FOR 30 WK BEGINNING 2 WK AFTER LAST CARCINOGEN DOSE (STUDY DURATION: 35 WK), Route [Carcinogen]: ORAL, Route [Promoter]: ORAL, Species: RAT, Strain/Sex: F344/MALE) is given as “liver: hepatocellular carcinoma” and the outcome (Carcinogen: DIETHYLNITROSAMINE, 55-18-5, Doses [Carcinogen]: 0.015% IN DRINKING WATER FOR 3 WK, Doses [Promoter]: 0, 0.02% IN DIET (12 MG/KG/D) FOR 30 WK BEGINNING 2 WK AFTER LAST CARCINOGEN DOSE (STUDY DURATION: 35 WK), Route [Carcinogen]: ORAL, Route [Promoter]: ORAL, Species: RAT, Strain/Sex: F344/FEMALE) is given as “liver: hepatocellular carcinoma”.

For `CCCCC(CC)COC(=O)c1ccccc1C(=O)OCC(CC)CCCC` (configuration not stated), the outcome (Carcinogen: DIETHYLNITROSAMINE [55-18-5], Doses [Carcinogen]: 200 MG/KG BW ONCE (STUDY DURATION: 48 WK), Doses [Promoter]: 0, 30, 300, 3000, 12000 PPM IN DIET FOR 46 WK BEGINNING 2 WK POST CARCINOGEN DOSE AND 1 WK PRIOR TO 2/3 PARTIAL HEPATECT, Doses [Promoter]: 0, 30, 300, 3000, 12000 PPM IN DIET FOR 46 WK BEGINNING 2 WK POST CARCINOGEN DOSE AND 1 WK PRIOR TO 2/3 PARTIAL HEPATECT, Route [Carcinogen]: INTRAPERITONEAL, Route [Promoter]: ORAL, Species: RAT, Strain/Sex: F344/MALE) is listed as “liver: hepatocellular adenoma”, the outcome (Carcinogen: DIETHYLNITROSAMINE [55-18-5], Doses [Carcinogen]: 200 MG/KG BW ONCE (STUDY DURATION: 52 WK), Doses [Promoter]: 0, 30, 300, 3000, 12000 PPM IN DIET FOR 46 WK BEGINNING 2 WK POST CARCINOGEN DOSE AND 1 WK PRIOR TO 2/3 PARTIAL HEPATECT, Doses [Promoter]: 0, 30, 300, 3000, 12000 PPM IN DIET FOR 46 WK BEGINNING 2 WK POST CARCINOGEN DOSE AND 1 WK PRIOR TO 2/3 PARTIAL HEPATECT, Route [Carcinogen]: INTRAPERITONEAL, Route [Promoter]: ORAL, Species: RAT, Strain/Sex: F344/MALE) is listed as “liver: hepatocellular adenoma or carcinoma” and the outcome (Carcinogen: N-ETHYL-N-HYDROXYETHYLNITROSAMINE, 13147-25-6, Doses [Carcinogen]: 0.05% IN DRINKING WATER FOR 2 WK, Doses [Promoter]: 0, 1.2% IN DIET FOR 24 WK POST CARCINOGEN DOSE (STUDY DURATION: 27 WK), Route [Carcinogen]: ORAL, Species: RAT, Strain/Sex: F344/MALE) is listed as “kidney: renal cell tumor”. For the same molecule, the outcome (Carcinogen: N-NITROSODIETHYLAMINE, 55-18-5, Doses [Carcinogen]: 5 UG/G BW ONCE AT 15 D OF AGE, Doses [Promoter]: 0, 12000 PPM IN DIET BEGINNING AT 4 WK OF AGE AND CONTINUING FOR DURATION OF STUDY (STUDY DURATION: 28 WK), Route [Carcinogen]: INTRAPERITONEAL, Route [Promoter]: ORAL, Species: MOUSE, Strain/Sex: C3H/HENCR/FEMALE) was “liver: hepatocellular adenoma”, the outcome (Carcinogen: N-NITROSODIETHYLAMINE, 55-18-5, Doses [Carcinogen]: 5 UG/G BW ONCE AT 15 D OF AGE, Doses [Promoter]: 0, 12000 PPM IN DIET BEGINNING AT 4 WK OF AGE AND CONTINUING FOR DURATION OF STUDY (STUDY DURATION: 28 WK), Route [Carcinogen]: INTRAPERITONEAL, Route [Promoter]: ORAL, Species: MOUSE, Strain/Sex: C3H/HENCR/MALE) was “liver: hepatocellular adenoma” and the outcome (Carcinogen: N-NITROSODIETHYLAMINE, 7119-92-8, Doses [Carcinogen]: 80 MG/KG ONCE, Doses [Promoter]: 0, 3000 PPM IN DIET BEGINNING 1 WK POST CARCINOGEN DOSE AND CONTINUING FOR 168 D (STUDY DURATION: 259 D), Route [Carcinogen]: INTRAPERITONEAL, Route [Promoter]: ORAL, Species: MOUSE, Strain/Sex: B6C3F1/MALE) was “liver: hepatocellular adenoma”.

For `C=CC1CC=CCC1` (configuration not stated), the outcome (Carcinogen: 7,12-Dimethylbenz(a)anthracene, 57-97-6, Doses [Carcinogen]: 100 ug once in sesame oil, administered 4 mo after vinylcyclohexene diepoxide dosing, Doses [Promoter]: 160 mg/kg bw for 25 days, administered daily in sesame oil, study duration 3 or 5 months, Route [Carcinogen]: Directly on ovary, Route [Promoter]: Intraperitoneal, Species: Rat, Strain/Sex: Fischer 344/Female) is listed as “ovary: tumors (non-neoplastic cystic ovaries also observed)”.
